Experimental data published in PubChem BioAssay (NCI).
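Assay format: 96-well plates, 48-hour exposure. GI50: concentration for 50% inhibition of growth. Definition used: TGI = concentration required for complete inhibition of growth.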

How the values were obtained:
Experiment in all cases: NCI-60 cell line screen, 48 h
SK-MEL-2 melanoma = system: SK-MEL-2 melanoma
KM12 colon = system: KM12 colon
OVCAR-8 ovarian = system: OVCAR-8 ovarian
RXF 393 renal = system: RXF 393 renal
SW-620 colon = system: SW-620 colon
NCI-H460 lung = system: NCI-H460 lung
SK-MEL-5 melanoma = system: SK-MEL-5 melanoma
SNB-75 CNS = system: SNB-75 CNS
HCC-2998 colon = system: HCC-2998 colon
NCI-H226 lung = system: NCI-H226 lung

Row | Compound | TGI (SK-MEL-2 melanoma) [µM] | TGI (KM12 colon) [µM] | TGI (OVCAR-8 ovarian) [µM] | TGI (RXF 393 renal) [µM] | TGI (SW-620 colon) [µM] | TGI (NCI-H460 lung) [µM] | TGI (SK-MEL-5 melanoma) [µM] | TGI (SNB-75 CNS) [µM] | TGI (HCC-2998 colon) [µM] | GI50 (SK-MEL-2 melanoma) [µM] | GI50 (KM12 colon) [µM] | GI50 (OVCAR-8 ovarian) [µM] | GI50 (RXF 393 renal) [µM] | GI50 (SW-620 colon) [µM] | GI50 (NCI-H460 lung) [µM] | GI50 (SK-MEL-5 melanoma) [µM] | GI50 (SNB-75 CNS) [µM] | GI50 (HCC-2998 colon) [µM] | GI50 (NCI-H226 lung) [µM] | TGI (NCI-H226 lung) [µM]
1 | CN1C2C=C(c3ccccc3)CC1CC2 (centres undefined) | > 100 | > 100 | > 100 | > 100 | > 100 | > 100 | > 100 | > 100 | > 100 |  |  |  |  |  |  |  |  |  |  | 
2 | CCOc1ccc(/C=C/[N+](=O)[O-])cc1 | 33 | 15.4 | 27.1 | 3.56 | 11.9 | > 100 | 18.5 | 30.9 | 3.94 | 17.1 | 4.51 | 13.2 | 1.79 | 3.15 | 26.8 | 5.78 | 13 | 1.82 | 3.06 | 11.7
3 | O=C1Nc2ccccc2Nc2nc3cccccc-3c21 | > 100 | > 100 | > 100 | > 100 | > 100 | > 100 | > 100 | > 100 | > 100 |  |  |  |  |  |  |  |  |  |  | > 100
4 | CC1(C)CCc2cc3c(-c4ccccc4)cc(=O)oc3cc2O1 | > 100 |  | > 100 |  | > 100 | > 100 | > 100 | 71.5 |  |  |  |  |  |  |  |  |  |  |  | > 100
5 | [C-]#[O+].[Cl][Sn]([Cl])[Cl].[Cl][Sn]([Cl])[Cl].[Pt].c1ccncc1 | > 100 | > 100 | > 100 | > 100 | > 100 | > 100 | > 100 | > 100 | > 100 |  |  |  |  |  |  |  |  |  |  | > 100
6 | c1ccc2c(c1)nc1n2CSC1 | > 100 |  | > 100 |  | > 100 | > 100 | > 100 | > 100 |  |  |  |  |  |  |  |  |  |  |  | > 100
7 | O=C(Nc1ccc(Cl)cc1)/C(Cc1cccc[n+]1[O-])=N\Nc1ccc([N+](=O)[O-])cc1[N+](=O)[O-] | > 100 | > 100 | > 100 | > 100 | > 100 | > 100 | > 100 | > 100 | > 100 |  |  |  |  |  |  |  |  |  |  | 
8 | CC(C)=CC(=O)OC1C2C(C)C(=O)OC2C(O)C(C)C2C=CC(=O)C21C (centres undefined) | 11.5 | 9.31 | 9.59 | 3.68 | 5.29 | 6.33 | 9.14 | 6.67 | 10.1 |  |  |  |  |  |  |  |  |  |  | 11.6
9 | O=C(Nc1nc2ccc([N+](=O)[O-])cc2[n+]([O-])n1)C(F)(F)F | 65.2 | > 100 | > 100 | > 100 | > 100 | > 100 | 25.3 | > 100 | > 100 |  |  |  |  |  |  |  |  |  |  | > 100
10 | O=C1CN2C(Cl)(Cl)C2(c2ccccc2)c2cc(Cl)ccc2N1CC(F)(F)F (centres undefined) | 54.9 | 42.2 | > 100 | 63.6 | > 100 | 35.9 | 33.2 | 51.2 | 35.9 |  |  |  |  |  |  |  |  |  |  | 67
11 | CCOP(=O)(OCC)C(Cc1ccc(OC)c(OC)c1)N=C(c1ccccc1)c1ccccc1 (centres undefined) |  | > 100 | > 100 | > 100 | > 100 | > 100 | 55.9 | 81.1 | 52.4 |  |  |  |  |  |  |  |  |  |  | > 100
12 | Cc1nc2ccccc2c(=O)n1CC(=O)O | > 100 | > 100 | > 100 | > 100 | > 100 | > 100 | > 100 | > 100 | > 100 |  |  |  |  |  |  |  |  |  |  | > 100
13 | Cc1cccc2c(N)c3cccc(C(=O)NCCN(C)C)c3nc12 | 0.463 | 0.856 | 2.01 | 0.479 |  | 0.0262 | 0.269 | 0.615 | 0.218 |  |  |  |  |  |  |  |  |  |  | 1.48
14 | C[C@]12C=CC(=O)C=C1CC[C@@H]1[C@@H]2C(=O)C[C@@]2(C)[C@H]1CC[C@]2(O)C(=O)CO | > 100 | > 100 | > 100 | > 100 | > 100 | > 100 | > 100 | > 100 | > 100 |  |  |  |  |  |  |  |  |  |  | > 100
15 | CCN(CC)CCCC(Nc1c2ccc(Cl)cc2nc2ccc(OC)cc12)c1ccc(F)cc1 (centres undefined) | 4.35 | 3.67 | 10.4 | 3.13 | 3.65 | 3.84 | 3.15 | 2.66 | 3.25 | 2.1 | 2 | 3.27 | 1.51 | 1.79 | 1.91 | 1.7 | 1.21 | 1.74 | 20.9 | 47.5
16 | O=C(O)c1cc(=O)[nH]c(=S)[nH]1 | > 100 | > 100 | > 100 | > 100 | > 100 | > 100 | > 100 | > 100 | > 100 |  |  |  |  |  |  |  |  |  |  | > 100
17 | CC[C@@H](C(=O)[C@@H](C)[C@@H](O)[C@H](C)CCc1ccc(C)c(O)c1C(=O)O)[C@H]1O[C@](CC)([C@H]2CC[C@](O)(CC)[C@H](C)O2)C[C@@H]1C | 3.82 | 9.57 | 14.3 |  | 15.6 | 9.47 | 3.62 | 7.07 | 11.4 |  |  |  |  |  |  |  |  |  |  | 10.8
18 | COc1c2c(cc3c(CCc4ccccc4)cc(=O)oc13)CCC(C)(C)O2 | > 100 | > 100 | > 100 | > 100 | > 100 | > 100 | > 100 | > 100 | > 100 |  |  |  |  |  |  |  |  |  |  | > 100
19 | Cc1ccc(/C(=C/C=C(C#N)C#N)Sc2cc(Cl)ccc2Cl)cc1 | > 100 | 28 |  | 27.8 | 22.5 | > 100 | 26.4 | 38.7 |  |  |  |  |  |  |  |  |  |  |  | 13.6
20 | CC(C)=CCc1c(C)cc2cc3c(c(O)c2c1O)C(O)=CC(=O)C3(CC=C(C)C)C/C=C(\C)CO (centres undefined) | 29.8 | 81.7 | 76.8 | 63.4 | 78.9 | 98.9 | 50.9 | 92.8 | 88.6 |  |  |  |  |  |  |  |  |  |  | 77
21 | CN1CCN(Cc2ccc(NC(=O)c3ccc(C#N)c(C#Cc4cnc(N)c5ncccc45)c3)cc2C(F)(F)F)CC1 | > 100 |  |  |  |  |  | 83.1 |  | > 100 | 2.45 |  |  |  |  |  | 6.67 |  | 3.89 |  | 
22 | CCCCN(CCCC)CCCCNc1c(C)cnc2cc(Cl)ccc12 | 39.9 | > 100 | > 100 | 31 | 56.8 | > 100 |  |  | 29.4 |  |  |  |  |  |  |  |  |  |  | 43.4
23 | CCOc1ccc2c(ccc(/C=C\c3cc(C)c4cccnc4c3O)[n+]2C)c1 | 3.24 | 22.7 | 38.8 | 18.9 | 28 | 10.2 | 3.48 | 15 | > 100 |  |  |  |  |  |  |  |  |  |  | 3.77
24 | Cc1ccc(S(=O)(=O)Oc2cc(S(=O)(=O)O)cc3cc(S(=O)(=O)O)cc(N)c23)cc1 | > 100 | > 100 | > 100 | > 100 | > 100 | > 100 | > 100 | > 100 | > 100 |  |  |  |  |  |  |  |  |  |  | > 100
25 | CC1=C[C@]2(CC(C)C3C(CC4(C)C5CCC6C(C)(C)C(=O)CC[C@@]67C[C@@]57CC[C@]34C)O2)OC1=O (some centres undefined) | > 100 | > 100 | > 100 | 21.8 | > 100 | > 100 | 20.2 | 42.1 | > 100 |  |  |  |  |  |  |  |  |  |  | 22
26 | COc1cc2c3c(n(CCN(C)C)c(=O)c2cc1OC)-c1cc2c(cc1C3=O)OCO2 | > 100 | > 60.2 | > 100 | > 57.9 | > 100 | > 100 | 22.1 | > 100 | > 100 | > 96.1 | 15.2 | 1.4 |  | 2.86 | 0.157 | 1.21 | 8.22 | 3.5 | 1.08 | 57.9
27 | CO/N=C1/c2sccc2[C@H](NC(=O)C(F)(F)F)[C@@H]1O | > 100 |  | > 100 | > 100 | > 100 | > 100 | > 100 | > 100 | > 100 |  |  |  |  |  |  |  |  |  |  | > 100
